Measurements taken from patent US20150087723A1, “MICROBIAL COMPOSITION” (Rohm and Haas Company, priority 2011, published 2015).

Key:
Type in all cases: cell-based
[1] = system: Escherichia coli (E. coli—ATCC #10536); experiment: Automated assessment of efficacy in model surfactant base (2.85% sodium cocoyl glycinate + 1.85% sodium lauroamphoacetate, pH 10), 15 seconds exposure, OD450/OD590 readout; conditions: for MBC: Escherichia coli, ATCC10536, 15 s, in 2.85% sodium cocoyl glycinate + 1.85% sodium lauroamphoacetate solution at pH 10, E. coli, read-out: MBC (% w/v); for No. of replicates showing growth (out of 4) / Δ OD 450 nm = OD450 (time = 16 hours) - OD450 (time zero), Mean / Δ OD 590 nm OD590 (time = 16 hours) - OD590 (time zero), Mean: model surfactant solution
Procedure: Solutions were prepared such that the concentrations of the surfactant components and test actives were 1.1×x the final desired concentration in order to allow for dilution with the bacterial inoculum in the test. The solutions were manually adjusted to pH 10.0 by drop wise addition of sodium hydroxide solution, as measured with a phi meter at ambient temperature.
Tests were conducted using standard microtiter plate assays using an automated liquid handling system, 270 μl of the surfactant test solution was pipetted into each well of the microtitre plate and 30 μl of the bacterial suspension was then added. After exactly 15 seconds of bacterial exposure, a 30 μl volume of bacterial cells was withdrawn and transferred to 270 μl of D/E quench solution. After 5 minutes in the D/E quench, the optical density (OD) was measured for each plate in turn at two specific wavelengths (450 nm and 590 nm). These provide a dual check of antimicrobial activity, as the OD450 reading is specific for the yellow colour of D/E quench when bacterial growth is observed, whereas OD590 is specific for the initial purple colour of the D/E quench which is retained if no bacterial growth is observed. After the time zero OD measurements, plates were then incubated at 37° C. overnight (16 hours) before repeating the OD measurements. Delta OD values were calculated by subtracting […] the initial value at time zero. Bacterial growth is observed as an increase in OD450 and a decrease in ΔOD590. To identify antibacterially efficacious systems (those preventing appreciable bacterial growth after incubation), the following threshold changes in OD readings have been adopted: if (1), OD450 increases by less than 0.2 absorbance unit on incubation and (2). OD590 decreases by less than 0.35 unit on incubation. Conversely, where OD450 increases by more than 0.2 AU and OD590 decreases by more than 0.35 unit after incubation, corresponding to a colour shift from purple to yellow, the test system allows bacterial growth and is not deemed efficacious. Four replicate measurements in the same plate have been made for each test system. The number of replicate wells showing either bacterial growth or no growth is also readily assessed by eye by following the colour change.
Dose responses for individual components and binary mixtures of actives at a used concentration ratio were generated by sequential dilution of liquors with further surfactant solution to obtain a series of endpoints.
In some selected cases, the combinations were also tested at the weight ratio 1:1.

[2] = system: Staphylococcus aureus (10788 strain); experiment: Antimicrobial efficacy in water, 15 seconds contact, mean bacterial survival NMBS by colony count
[3] = system: Escherichia coli (10536 strain); experiment: as above
Procedure: An overnight culture of Escherichia coli (10536 strain) was prepared in 50 ml total volume of TSB broth, grown for ca. 18 hrs at 37° C. and shaken at 150 rpm. 1 ml of this overnight E. coli culture was transferred to 50 ml of fresh TSB broth and incubated at 37° C. at 150 rpm for ca. 4 hours. […] This bacterial stock was used for assaying against antimicrobial actives (in triplicate).
The following assay describes the testing of 8 materials using 6 dilutions across half of a 96-well micro litre plate (MTP). Using this approach it is possible to assay 16 actives (without replicates) with, one full dilution plate, replicating this set up in two halves of the plate columns, 1-6 and 7-12.
IM solutions of the test actives were prepared in dimethylsulphoxide (DMSO).
Aliquots (270 μl) of the materials at 1.11 times the final concentration were dispensed into the wells of the MTP along one column (A1-H1). This MTP was labeled as the “Screening plate”.
In another MTP, labeled as the “Dilution plate”, 270 μl of D/E neutralising solution from DIFCO Composition was added to column 1. The composition of the neutralising solution was as follows: pancreatic digest of casein, 5.0 g/L; Yeast Extract, 2.5 g/L; Dextrose, 10 g/L, sodium thioglycollate, 1.0 g/L, sodium thiosulphate, 6.0 g/L; sodium bisulphite, 2.5 g/L; Polysorbate 80, 5.0 g/L; lecithin 7.0 g/L; bromocresol purple, 0.02 g/L with a pH is the range 7.6±0.2.
270 μl of tryptone diluent solution was added to all the remaining wells of the Dilution MTP (columns 2-6).
Bacterial stock (30 μl) was then added to the prepared 270 μl of the solution of actives in the Screening Plate and mixed, using a multichannel pipette with 8 tips to aspirate and dispense the same volume of bacterial stock in parallel to 8 wells in rows A-H. After a contact time of 15 seconds, the mixtures were quenched by transferring 30 μl volumes of the mixtures into the 270 μl D/E neutralising solution in the prepared dilution plate, using aspiration to mix. After exactly 5 minutes in the D/E neutralising solution, 30 μl volumes were transferred from column 1 to column 2 of the Dilution MTP and mixed, before transferring further 30 μl volumes from column 2 into column 3. This process was repeated serially diluting the bacteria across the plate to column 6.
30 μl volumes from each well in the Dilution MTP were transferred onto pre-labeled segment of Tryptone Soya Agar (TSA) plates starting from the lowest bacterial concentration (highest dilution, column 6) to the highest bacterial concentration (column 1). The TSA plates were allowed to stand for ca. 2 hours so that the 30 μl inocula spots could dry and the plates were then inverted and incubated overnight at 37° C. before enumerating the bacterial colonies at the labeled dilutions to determine the effects of the actives on bacterial growth.
Mean bacterial survival numbers NMBS (expressed in Log CFU/ml) are obtained by first determining the segment of the TSA plate where the number of bacterial colonies is countable. From the colony number in this segment, NMBS is calculated by the formula: […]
Here, Ncol is the colony count, and DF is the dilution factor taken from the MTP-well corresponding to the TSA plate segment (i.e. DF may range from 1 for the quench, to 6 for the highest dilution).

Structure (SMILES): CCCc1ccccc1O [2-n-propylphenol]
- MBC [1]: 1750 µg/mL
- No. of replicates showing growth (out of 4) ([1]; component alone at 0.125% w/v): 4 out of 4
- Δ OD 450 nm = OD450 (time = 16 hours) - OD450 (time zero), Mean ([1]; component alone at 0.125% w/v): −1.34
- Δ OD 590 nm OD590 (time = 16 hours) - OD590 (time zero), Mean ([1]; component alone at 0.125% w/v): 0.54
- No. of replicates showing growth (out of 4) ([1]; component alone at 0.175% w/v): 0 out of 4
- Δ OD 450 nm = OD450 (time = 16 hours) - OD450 (time zero), Mean ([1]; component alone at 0.175% w/v): −0.10
- Δ OD 590 nm OD590 (time = 16 hours) - OD590 (time zero), Mean ([1]; component alone at 0.175% w/v): 0.09
- No. of replicates showing growth (out of 4) ([1]; component alone at […] w/v): 4 out of 4
- Δ OD 450 nm = OD450 (time = 16 hours) - OD450 (time zero), Mean ([1]; component alone at […] w/v): −1.43
- Δ OD 590 nm OD590 (time = 16 hours) - OD590 (time zero), Mean ([1]; component alone at […] w/v): 0.44

Structure (SMILES): CC(C)=CCC/C(C)=C/CO [(E)-3,7-dimethylocta-2,6-dien-1-ol]
- Log reduction S. aureus ATCC 6538 ([2]; component alone at 0.1% w/v): −0.12
- Log reduction S. aureus ATCC 6538 ([2]; component alone at […] w/v): −0.06
- MBC [1]: > 5000 µg/mL
- No. of replicates showing growth (out of 4) ([1]; component alone at 0.2% w/v): 4 out of 4
- Δ OD 450 nm = OD450 (time = 16 hours) - OD450 (time zero), Mean ([1]; component alone at 0.2% w/v): −0.54
- Δ OD 590 nm OD590 (time = 16 hours) - OD590 (time zero), Mean ([1]; component alone at 0.2% w/v): 0.60
- No. of replicates showing growth (out of 4) ([1]; component alone at 0.3% w/v): 4 out of 4
- Δ OD 450 nm = OD450 (time = 16 hours) - OD450 (time zero), Mean ([1]; component alone at 0.3% w/v): −0.51
- Δ OD 590 nm OD590 (time = 16 hours) - OD590 (time zero), Mean ([1]; component alone at 0.3% w/v): 0.59
- No. of replicates showing growth (out of 4) ([1]; component alone at 0.4% w/v): 4 out of 4
- Δ OD 450 nm = OD450 (time = 16 hours) - OD450 (time zero), Mean ([1]; component alone at 0.4% w/v): −0.49
- Δ OD 590 nm OD590 (time = 16 hours) - OD590 (time zero), Mean ([1]; component alone at 0.4% w/v): 0.60
- No. of replicates showing growth (out of 4) ([1]; component alone at 0.5% w/v): 4 out of 4
- Δ OD 450 nm = OD450 (time = 16 hours) - OD450 (time zero), Mean ([1]; component alone at 0.5% w/v): −0.45
- Δ OD 590 nm OD590 (time = 16 hours) - OD590 (time zero), Mean ([1]; component alone at 0.5% w/v): 0.62
- No. of replicates showing growth (out of 4) ([1]; component alone at […] w/v): 4 out of 4
- Δ OD 450 nm = OD450 (time = 16 hours) - OD450 (time zero), Mean ([1]; component alone at […] w/v): −0.53
- Δ OD 590 nm OD590 (time = 16 hours) - OD590 (time zero), Mean ([1]; component alone at […] w/v): 0.58
- Terpene alcohol MBC %(w/v) ([1]; terpene alcohol alone, model surfactant, E. Coli): 0.5 %(w/v)
- Log reduction E. coli ATCC 10536 ([3]; component alone at 0.1% w/v): 1.27
- Log reduction E. coli ATCC 10536 ([3]; component alone at […] w/v): 1.94
